We go through 1 molecule from patent US20200352889A1, “CYSTATHIONINE COMPOSITIONS AND METHODS OF TREATMENT FOR HEALTH CONDITIONS” (THE REGENTS OF THE UNIVERSITY OF COLORADO, A BODY CORPORATE, priority 2011, published 2020).

Structures are written as SMILES.

In one assay the target is T1, CGL (Mus musculus, UniProt Q8VCN5).
T1 construct: endogenous in cells; host or cells: C57BL/6J wild-type mice (whole animal, in vivo)
As to the kind of experiment: Daily injection of PPG in WT mice, plasma cystathionine, Hcy, methionine and cysteine. The class given is in vivo. Here is the method: It is believed that the longevity of this cystathionine accumulation with repeated injections of PPG over time in mice has not been properly examined. Consequently, daily injections of PPG were given to WT mice (n=7) each morning over a period of 4 days. Plasma samples were taken from these mice in the evening of each day by non-lethal tail bleed and the levels of cystathionine, Hcy, methionine and cysteine were determined (FIG. 4). Inactivation of CGL was observed and was accompanied by a 56-fold increase in the plasma level of cystathionine on day 1. […] Cysteine levels subsequently returned to near normal levels as the effects of the PPG treatment diminished.
Propensity for hepatic steatosis was examined in HO and wild type control mice using a methionine-choline deficient amino acid defined and iron supplemented diet (#518810 Dyets Inc., Bethlehem, Pa.)) and an isocaloric amino acid defined Lombardi choline sufficient diet with methionine control diet (518754, Dyets Inc., Bethlehem, Pa.) for 19 days as described previously (7). Experimental hypercystathionemia was induced by IP injection of the CGL inactivator PPG (50 mg·day-1·kg-1) as described previously (8). ER stress was induced in mice by a single IP injection with tunicamycin at 0.5 mg/kg body weight (volume <=1.0 ml). Control mice were sham treated by injection with an equal volume of PBS (9,10).
Determination of plasma levels of methionine cycle metabolites was performed as described previously (11).
Previous work by Abeles and Walsh synthesized and tested a range of acetylenic substrates capable of irreversible inactivation of CGL. […] For our purposes this method has the additional benefit of allowing us to investigate the possible protective effects of elevated cystathionine in isolation from its role as a cysteine donor. To our knowledge, the longevity of this cystathionine accumulation with repeated injections of PPG over time in mice has not been examined. Daily injections of PPG to WT mice were given (n=7) each morning over a period of 4 days. Plasma samples were taken from these mice in the evening of each day by non-lethal tail bleed and the levels of cystathionine, Hcy, methionine and cysteine were determined (FIG. 4). It was observed that inactivation of CGL was accompanied by a 56-fold increase in the plasma level of cystathionine on day 1. […] Cysteine levels subsequently returned to near normal levels as the effects of the PPG treatment diminished. These experiments allowed us to define an optimal time frame for examining the possible protective effects of PPG mediated cystathionine accumulation in WT mice. The effect of PPG on liver health was assessed by determining ALT values before PPG treatment and at each subsequent time point studied.

A further assay relates to HepG2 cells. As to the kind of experiment: Tunicamycin-induced cell death, LDH release, HepG2 cells. In kind it is cell-based, human. The note with it: data not shown. The protocol:
Cells were seeded in triplicate at ˜75% confluence and pre-treated with either PPG) (5 mM), Cystathionine (1 mM) or with just complete media (DMEM, 10% FBS) as a control. After 24 hr pre-treatment, cells looked normal, with minimal floating cells. Fresh media with 1% FBS was then added to each well, the cells were further treated with Tm (either 5 or 10 ug)/ml. After 18 hr. treatment with Tunicamycin, cells were photographed under phase-contrast with a Zeiss Axiovert 25 microscope for evidence of dead floating cells. Cells from the group treated solely with tunicamycin became strikingly hyper-refringent, detached from the substratum and floated in the media. […] To further evaluate a role for cystathionine in resisting the induction of cell death by tunicamycin, cell lysis was quantified by assaying lactate dehydrogenase (LDH) release. The enzyme activity was determined spectrophotometrically and the amount of enzyme leak was expressed as a percentage of the LDH activity observed in untreated control cells. […]
Cells were seeded in triplicate at ˜75% confluence and pre-treated with either PPG) (5 mM), Cystathionine (1 mM) or with just complete media (DMEM, 10% FBS) as a control. […] To further evaluate a role for cystathionine in resisting the induction of cell death by tunicamycin, cell lysis was quantified by assaying lactate dehydrogenase (LDH) release. […]
In general terms: LDH leaks from cells whose membrane has failed.

In a further assay the test system is a23 cells. Description: Tunicamycin-induced cell death, LDH release, transsulfuration negative a23 cells. The class given is cell-based, Chinese hamster. The following applies: CBS and CGL negative, p=0.7301. An excerpt: However, examination of a direct effect of exogenously added cystathionine is not currently possible in a whole animal model because of complications with the compounds solubility and rapid kinetics of its excretion. In order to investigate the direct effects of cystathionine against ER stress-induced cell death, the cytotoxicity of tunicamycin in the human embryonic kidney cell line 293AD and the human hepatoma cell line HepG2 in the presence and absence of both PPG and exogenously added cystathionine was examined. Preliminary experiments confirmed that both of these cell lines express both CBS and CGL (data not shown). In order to investigate the possible protective effects of cystathionine in the absence of transsulfuration, these experiments were repeated with the CBS and CGL negative Chinese hamster fibroblast line a23 (6).
Cells were seeded in triplicate at ˜75% confluence and pre-treated with either PPG) (5 mM), Cystathionine (1 mM) or with just complete media (DMEM, 10% FBS) as a control. […] To further evaluate a role for cystathionine in resisting the induction of cell death by tunicamycin, cell lysis was quantified by assaying lactate dehydrogenase (LDH) release. The enzyme activity was determined spectrophotometrically and the amount of enzyme leak was expressed as a percentage of the LDH activity observed in untreated control cells. […]

A further assay relates to hepatic CGL. The note with it: I.P. injection; cited from earlier work.
Where [1] appears, read: daily PPG IP, declined back to normal as PPG efficacy diminished.

T1 sequence (Q8VCN5 whole entry): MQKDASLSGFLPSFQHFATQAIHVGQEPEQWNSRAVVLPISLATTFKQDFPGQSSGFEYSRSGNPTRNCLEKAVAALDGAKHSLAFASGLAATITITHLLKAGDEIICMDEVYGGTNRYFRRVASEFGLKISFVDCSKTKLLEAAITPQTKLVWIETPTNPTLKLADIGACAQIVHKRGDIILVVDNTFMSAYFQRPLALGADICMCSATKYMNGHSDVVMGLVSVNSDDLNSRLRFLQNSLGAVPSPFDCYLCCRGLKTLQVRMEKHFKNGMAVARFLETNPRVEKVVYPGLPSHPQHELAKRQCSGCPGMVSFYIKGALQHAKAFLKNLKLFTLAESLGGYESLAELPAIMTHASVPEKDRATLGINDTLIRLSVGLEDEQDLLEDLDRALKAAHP

On to `C#CCC(N)C(=O)O` (racemic) [PPG, D,L-2-amino-4-pentynoic acid], for which, at CGL (daily PPG IP 50 mg/kg/day, day 1, vs untreated animals), the “increase in the plasma level of cystathionine” value (from here on “increase in the plasma level”) is reported as 56 fold. The “increase in the plasma level” value at CGL (daily PPG IP, day 3) is given as 30 fold. Besides, the “increase in the plasma level” value at CGL (daily PPG IP, day 4, vs untreated animals) was determined as 8 fold. In addition, at CGL (setting [1]), the plasma methionine result is recorded as “relatively mild elevation” and the “plasma total Hcy (tHcy)” value is “relatively mild elevation”. The plasma cysteine levels entry on CGL (daily PPG IP, first and second days) was “concomitant decrease”. The plasma cystathionine accumulation entry at CGL (daily PPG IP, second day) was “maximal accumulation persisted”. The “protection against tunicamycin-induced cell death compared with 293AD cells” value in the assay with HepG2 cells was “Essentially identical results”. In the assay with a23 cells, the “cytoprotection against tunicamycin induced cell death” value is reported as “no significant cytoprotection”. In the assay with hepatic CGL, the “duration of cystathionine accumulation” value is listed as “approximately one day”, the “inactivation of hepatic CGL activity” value is on record as “rapidly inactivate” and the “time to accumulation of cystathionine” value is “within one hour”.
